Data published in patent US20210267989A1, “Novel Compounds for the Treatment, Alleviation or Prevention of Disorders Associated with Tau Aggregates” (AC Immune SA, priority 2018, published 2021).
Structures can show the parent of a compound that is named as a salt.

Target: T1, recombinant full-length (fl)Tau aggregates (longest isoform of human Tau, 2N4R; 441 amino acids) (Homo sapiens, UniProt P10636)
T1 construct: 35 μM of recombinant full-length (fl)Tau in PBS were aggregated for 24 hours; made in house; host or cells: bacteria
T1 sequence (P10636 1-441 isoform P10636-8): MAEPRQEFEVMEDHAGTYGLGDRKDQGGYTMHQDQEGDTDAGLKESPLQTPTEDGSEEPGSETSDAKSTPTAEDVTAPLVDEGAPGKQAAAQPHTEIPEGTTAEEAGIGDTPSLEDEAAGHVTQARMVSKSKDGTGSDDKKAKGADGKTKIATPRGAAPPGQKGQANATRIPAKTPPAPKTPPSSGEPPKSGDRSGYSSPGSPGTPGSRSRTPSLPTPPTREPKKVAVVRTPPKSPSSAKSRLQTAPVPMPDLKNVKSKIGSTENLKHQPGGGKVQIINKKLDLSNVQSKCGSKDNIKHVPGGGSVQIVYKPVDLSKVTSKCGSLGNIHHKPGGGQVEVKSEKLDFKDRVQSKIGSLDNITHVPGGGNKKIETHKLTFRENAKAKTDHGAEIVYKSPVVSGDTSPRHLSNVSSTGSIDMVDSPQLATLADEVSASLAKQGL
Assay: Full-length Tau (flTau) disaggregation assay by Thioflavin T (ThT)
Type: biochemical
Details: ThT fluorescence; 2 μM flTau aggregates, 30 minutes at RT
Protocol: Full-Length Tau (flTau) Disaggregation Assay by Thioflavin T (ThT)
The longest isoform of human Tau (2N4R; 441 amino acids) was expressed in bacteria and purified. For the Tau disaggregation assay by ThT, 35 μM of recombinant full-length (fl)Tau in PBS were aggregated for 24 hours at 37° C. in presence of 50 μM of heparin (Sigma-Aldrich) and 10 mM of DTT (Sigma-Aldrich) under shaking at 750 RPM. Compounds were dissolved in anhydrous dimethyl sulfoxide (DMSO, Sigma-Aldrich) to reach a concentration of 10 mM. flTau aggregates and serial dilutions of compounds were mixed together in PBS (volume 50 μL) to a final concentration of 2 μM of flTau aggregates and from 160 to 0.04 μM of compounds. The mixture was incubated for 30 minutes at room temperature (RT), then 40 μL of this mixture were transferred into a black 384-well plate assay (Perkin-Elmer) and mixed with 10 μL of 100 μM ThT in 250 mM glycine (both from Sigma-Aldrich) in PBS. Fluorescence (relative fluorescence units; RFU) was measured in monoplicate or duplicate on a Tecan reader (excitation: 440 nm; emission: 485 nm). Percentage of flTau disaggregation was then calculated and the half maximal effective concentration (EC50) was determined using GraphPad Prism version 5 (GraphPad Software) assuming a one-binding site fitting model.

Row | SMILES | EC50 [µM]
1 | Cn1c2c(c3ccc(F)cc31)CCN(c1ccc3nc(N4CCOCC4)sc3c1)C2 [Example 6] | < 10
2 | Cn1c2c(c3ccc(F)cc31)CCN(c1ccc3sc(N4CCOCC4)nc3c1)C2 [Example 7] | < 10
3 | Cn1c2c(c3cc(F)ccc31)CCN(c1ccc(N3CCOCC3)nc1)C2 [Example 8] | < 10
4 | COc1cc(N2CCc3c(n(C)c4ccc(F)cc34)C2)ccc1F [Example 9] | < 10
5 | CN(C)c1nc2cc(N3CCc4c(n(C)c5ccc(F)cc45)C3)ccc2s1 [Example 11] | < 10
6 | CN(C)c1nc2cc(N3CCc4c(n(C)c5ccc(F)cc45)C3)ccc2o1 [Example 13] | < 10
7 | COc1ccc2c(c1)c1c(n2C)CN(c2ccc3sc(N4CCOCC4)nc3c2)CC1 [Example 14] | < 10
8 | COc1ccc2c(c1)c1c(n2C)CN(c2ccc3nc(N4CCOCC4)sc3c2)CC1 [Example 15] | < 10
9 | COc1ccc2c(c1)c1c(n2C)CN(c2ccc3oc(N4CCOCC4)nc3c2)CC1 [Example 16] | < 10
10 | COc1ccc2c(c1)c1c(n2C)CN(c2ccc3sc(N(C)C)nc3c2)CC1 [Example 17] | < 10
11 | COc1ccc2c(c1)c1c(n2C)CN(c2ccc3nc(N(C)C)sc3c2)CC1 [Example 18] | < 10
12 | COc1ccc2c(c1)c1c(n2C)CN(c2ccc3nc(N(C)C)oc3c2)CC1 [Example 19] | < 10
13 | c1ccc2c3c([nH]c2c1)CN(c1ccc(N2CCOCC2)nc1)CC3 [Example 44 HCl] | < 10
14 | Cn1c2c(c3ccccc31)CCN(c1ccc(N3CCOCC3)cn1)C2 [Example 45 HCl] | < 10
15 | Cn1c2c(c3ccccc31)CCN(c1ccc(N3CCOCC3)nc1)C2 [Example 46 HCl] | 10 to 25
16 | c1ccc2c3c([nH]c2c1)CN(c1ccc(N2CC4COCC4C2)nc1)CC3 (stereo not drawn) [Example 69 HCl] | < 10
17 | c1ccc2c3c([nH]c2c1)CN(c1ccc(N2CC4CC(C2)O4)nc1)CC3 [Example 71 HCl] | 10 to 25

Row | SMILES | EC50 [µM]
18 | C[C@H]1CN(c2ccc(N3CCc4c([nH]c5ccccc45)C3)cn2)CCO1 [Example 74 HCl] | < 10
19 | C[C@@H]1CN(c2ccc(N3CCc4c([nH]c5ccccc45)C3)cn2)CCO1 [Example 75 HCl] | < 10
20 | C[C@@H]1CN(c2ccc(N3CCc4c([nH]c5ccccc45)C3)cn2)C[C@H](C)O1 [Example 76 HCl] | < 10
21 | C[C@H]1COCCN1c1ccc(N2CCc3c([nH]c4ccccc34)C2)cn1 [Example 79 HCl] | 10 to 25
22 | c1ccc2c3c([nH]c2c1)CN(c1ccc(N2CC4(CCOCC4)C2)nc1)CC3 [Example 80 HCl] | 10 to 25
23 | c1ccc2c3c([nH]c2c1)CN(c1ccc(N2CCC4(CC2)COC4)nc1)CC3 [Example 83 HCl] | 25 to 50
24 | c1ccc2c3c([nH]c2c1)CN(c1ccc(N2C[C@H]4C[C@@H]2CO4)nc1)CC3 [Example 85 HCl] | 10 to 25
25 | c1ccc2c3c([nH]c2c1)CN(c1ccc(N2C[C@@H]4C[C@H]2CO4)nc1)CC3 [Example 86 HCl] | < 10
26 | Cn1c2c(c3cc(F)ccc31)CCN(c1ccc3oc(N4CCOCC4)nc3c1)C2 [Example 104] | < 10
27 | Cn1c2c(c3cccnc31)CCN(c1ccc(N3CCOCC3)nc1)C2 [Example 105 HCl] | 25 to 50
28 | Cn1c2c(c3cc(F)cnc31)CCN(c1ccc(N3CCOCC3)cn1)C2 [Example 107 HCl] | 25 to 50
29 | Fc1ccc2c3c([nH]c2c1)CN(c1ccc(N2CCOCC2)nc1)CC3 [Example 108 HCl] | < 10
30 | Fc1ccc2c3c([nH]c2c1)CN(c1ccc(N2CCOCC2)cn1)CC3 [Example 109 HCl] | < 10
31 | Cn1c2c(c3ccc(F)cc31)CCN(c1ccc(N3CCOCC3)nc1)C2 [Example 110 HCl] | < 10
32 | Cn1c2c(c3ccc(F)cc31)CCN(c1ccc(N3CCOCC3)cn1)C2 [Example 111 HCl] | < 10
33 | CCn1c2c(c3ccccc31)CCN(c1ccc(N3CCOCC3)nc1)C2 [Example 123 HCl] | < 10
